Source: PMC6150325 (Molecules : A Journal of Synthetic Chemistry and Natural …, 2017)
Where “and” joins values, the source holds several entries; their conditions need not be identical. Equal entries are not always repeated. Where two headings read alike, the source gives them in different places.

Assays:
[1] = molecular target: T1, bacterial Vibrio cholerae neuraminidase (VCNA) (Vibrio cholerae serotype O1, UniProt P0C6E9); assay: biochemical; details: mean ± SD, n = 3–6
T1 construct: purchased Hoffmann La Roche, Basel, Switzerland
T1 sequence (P0C6E9 25-781): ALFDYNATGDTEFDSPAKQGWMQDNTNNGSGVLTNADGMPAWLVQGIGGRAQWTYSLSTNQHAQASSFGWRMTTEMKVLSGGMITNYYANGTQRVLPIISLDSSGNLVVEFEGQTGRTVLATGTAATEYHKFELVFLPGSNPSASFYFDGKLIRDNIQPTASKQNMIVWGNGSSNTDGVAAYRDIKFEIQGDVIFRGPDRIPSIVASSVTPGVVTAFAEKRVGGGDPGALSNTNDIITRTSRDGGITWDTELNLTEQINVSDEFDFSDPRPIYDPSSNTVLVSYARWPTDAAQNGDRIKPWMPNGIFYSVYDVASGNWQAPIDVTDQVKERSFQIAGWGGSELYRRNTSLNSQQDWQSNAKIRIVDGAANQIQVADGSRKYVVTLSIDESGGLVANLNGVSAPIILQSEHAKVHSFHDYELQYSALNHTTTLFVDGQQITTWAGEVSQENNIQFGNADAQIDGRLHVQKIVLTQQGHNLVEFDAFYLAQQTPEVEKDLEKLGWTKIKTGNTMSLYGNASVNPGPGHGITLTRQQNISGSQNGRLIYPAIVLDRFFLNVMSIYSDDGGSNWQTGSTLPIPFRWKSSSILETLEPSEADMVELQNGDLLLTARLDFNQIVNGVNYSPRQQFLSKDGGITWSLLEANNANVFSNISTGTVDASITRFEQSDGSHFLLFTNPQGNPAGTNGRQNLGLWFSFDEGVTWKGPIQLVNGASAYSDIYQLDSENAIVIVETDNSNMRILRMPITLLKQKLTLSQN

[2] = molecular target: viral influenza A/California/04/2009 (H1N1) neuraminidase (H1N1-NA) (Influenza A virus (A/California/04/2009(H1N1)), UniProt C3W5S3); assay: biochemical; assay type: biochemical
[3] = molecular target: Streptococcus pneumoniae NA NanA; details: cited from earlier work
Ruminococcus gnavus NA = details: cited from earlier work
bacterial VCNA = molecular target: T2, bacterial VCNA (Vibrio cholerae serotype O1, UniProt P0C6E9); assay: biochemical
T2 construct: purchased Hoffmann La Roche, Basel, Switzerland
T2 sequence (P0C6E9 25-781): as above
Method: The median–effect concentration (Dm, a parameter analogous to the IC50 value indicating potency), the slope of the concentration–effect relationship (m, the dynamic order or the shape of dose–effect curve), and the linear regression correlation coefficient (r, a measure of data quality) were determined from the median–effect plots.
The concentration–efficiency curves of the test samples were transformed into the double-logarithmic mean action diagram (shape (m), intercepts and regression coefficients were used to determine the median effect dose Dm). Dm= 10^−(b/m)
Fraction affected (fa) and fraction unaffected (fu) by the concentration D were calculated by the median effect equation [27]: fa/fu= (D/Dm)^m
Dm is the concentration required to produce the median effect.

Compound: O=C(OCC1OC(OC(=O)c2cc(O)c(O)c(O)c2)C(OC(=O)c2cc(O)c(O)c(O)c2)C(OC(=O)c2cc(O)c(O)c(O)c2)C1OC(=O)c1cc(O)c(O)c(O)c1C1c2c(O)c(O)c(O)c3c2C(=O)OC1C(C1OC(=O)c2cc(O)c(O)c(O)c2-c2c(cc(O)c(O)c2O)C(=O)OCC1O)OC(=O)c1cc(O)c(O)c(O)c1-3)c1cc(O)c(O)c(O)c1 (stereo not drawn) [paeonianin C]
- IC50 [1]: 14.6 µM and 15 µM
- IC50 ([2]; read-out: IC50 (Viral)): 344 µM

Compound: CCC(CC)O[C@@H]1C=C(C(=O)O)C[C@H](N)[C@H]1NC(C)=O [oseltamivir carboxylate]
- Ki [3]: 1.77 µM
- IC50 (Ruminococcus gnavus NA): 30 µM

Compound: O=C(O[C@@H]1Cc2c(O)cc(O)cc2O[C@@H]1c1cc(O)c(O)c(O)c1)c1cc(O)c(O)c(O)c1 [epigallocatechin-3-O-gallate]
- IC50 [1]: 63.3 µM and 64 µM
- IC50 ([2]; IC50 (Viral)): 1560 µM

Compound: Oc1cc(O)c2c(c1)O[C@H](c1ccc(O)c(O)c1)[C@H](O)C2 [epicatechin]
- IC50 [1]: 2310 µM
- IC50 ([2]; IC50 (Viral)): 1050 µM

Compound: O=C1OCC2OC(=O)c3cc(O)c(O)c(O)c3-c3c(O)c(O)c(O)c4c3C(=O)OC(C2OC(=O)c2cc(O)c(O)c(O)c2-c2c1cc(O)c(O)c2O)C1OC(=O)c2c-4c(O)c(O)c(O)c2C1O (stereo not drawn) [vescalagin]
- IC50 [1]: 134 µM

Compound: O=C1OC[C@@H](O)[C@H]([C@@H]2OC(=O)c3cc(O)c(O)c(O)c3-c3c(O)c(O)c(O)c4c3C(=O)O[C@H]2[C@@H]4O)OC(=O)c2cc(O)c(O)c(O)c2-c2c1cc(O)c(O)c2O [casuariin]
- IC50 [1]: 236 µM

Compound: Oc1cc(O)c2c(c1)O[C@H](c1ccc(O)c(O)c1)[C@@H](O)C2 [catechin]
- IC50 [1]: 2050 µM
- IC50 ([2]; IC50 (Viral)): 1070 µM and 1080 µM

Compound: Oc1cc(O)c2c(c1)O[C@H](c1cc(O)c(O)c(O)c1)[C@H](O)C2 [epigallocatechin]
- IC50 [1]: 1950 µM and 1960 µM
- IC50 ([2]; IC50 (Viral)): 1740 µM

Compound: CC(=O)N[C@H]1[C@H]([C@H](O)[C@H](O)CO)OC(C(=O)O)=C[C@@H]1N=C(N)N [zanamivir, 2,4-dideoxy-2,3-didehydro-4-guanidino-N-acetylneuraminic acid]
- IC50 [1]: 51.2 µM and 52 µM
- Ki [3]: 720 µM
- IC50 (Ruminococcus gnavus NA): 11900 µM
- IC50 (bacterial VCNA): 51.2 µM
- m (slope of the concentration–effect relationship) (bacterial VCNA; VCNA, median effect plot): 0.9

Compound: Oc1cc(O)c2c(c1)O[C@H](c1cc(O)c(O)c(O)c1)[C@@H](O)C2 [gallocatechin]
- IC50 [1]: 1970 µM
- IC50 ([2]; IC50 (Viral)): 1790 µM

Compound: O=C1O[C@H]2[C@H](OC(=O)c3cc(O)c(O)c(O)c3)[C@@H](OC(=O)c3cc(O)c(O)c4c3[C@@H]3C1=CC(=O)C(O)(O)C3(O)O4)[C@H](OC(=O)c1cc(O)c(O)c(O)c1)O[C@@H]2COC(=O)c1cc(O)c(O)c(O)c1 (stereo partly drawn) [terchebin]
- IC50 [1]: 30.4 µM and 31 µM
- fold higher inhibitory potency compared to paeonianin C [2]: 3.5 fold
- IC50 ([2]; IC50 (Viral)): 102 µM and 101 µM

Compound: O=C1O[C@H]2[C@H](OC(=O)c3cc(O)c(O)c(O)c3)[C@@H](OC(=O)c3cc(O)c(O)c4c3[C@@H]3C1=CC(=O)[C@](O)(O4)C3(O)O)[C@@H]1OC(=O)c3cc(O)c(O)c(O)c3-c3c(cc(O)c(O)c3O)C(=O)OC[C@H]2O1 [carpinusin]
- IC50 [1]: 138 µM

Compound: O=C(O[C@@H]1Cc2c(O)cc(O)cc2O[C@@H]1c1ccc(O)c(O)c1)c1cc(O)c(O)c(O)c1 [epicatechin-3-O-gallate]
- IC50 [1]: 210 µM and 211 µM
- IC50 ([2]; IC50 (Viral)): 1910 µM

Compound: O=C1O[C@H]2[C@H](O)[C@@H](OC(=O)c3cc(O)c(O)c4c3[C@@H]3C1=CC(=O)[C@](O)(O4)C3(O)O)[C@@H]1OC(=O)c3cc(O)c(O)c(O)c3-c3c(cc(O)c(O)c3O)C(=O)OC[C@H]2O1 [granatin A]
- IC50 [1]: 155 µM and 158 µM

Compound: O=C(O[C@H]1Cc2c(O)cc(O)cc2O[C@@H]1c1ccc(O)c(O)c1)c1cc(O)c(O)c(O)c1 [catechin-3-O-gallate]
- IC50 [1]: 54.3 µM and 55 µM
- IC50 ([2]; IC50 (Viral)): 1950 µM

Compound: O=C(O[C@H]1Cc2c(O)cc(O)cc2O[C@@H]1c1cc(O)c(O)c(O)c1)c1cc(O)c(O)c(O)c1 [gallocatechin-3-O-gallate]
- IC50 [1]: 24 µM and 25 µM
- IC50 ([2]; IC50 (Viral)): 395 µM and 396 µM

Compound: O=C1O[C@H]2[C@@H]3OC(=O)c4cc(O)c(O)c(O)c4-c4c(cc(O)c(O)c4O)C(=O)OC[C@H]2O[C@@H](OC(=O)c2cc(O)c(O)c(O)c2)[C@@H]3OC(=O)c2cc(O)c(O)c3c2[C@@H]2C1=CC(=O)[C@](O)(O3)C2(O)O [geraniin]
- IC50 [1]: 134 µM and 135 µM
